In ChEMBL document CHEMBL1201862, “PubChem BioAssay data set” (2004):
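Protocol summary: plate cells (96-well), add compound at 5 concentrations, incubate 48 h, interpolate endpoints linearly. GI50 marks 50% less growth.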 Active and inactive are the calls of the source. Cut-off read from the data, not from the text of the source: active = GI50 up to about 1.1 µM and inactive = higher.

Legend:
Assay in all cases: inhibition of tumour cell growth, NCI panel, 48 h
[1] = tested on: SF-295
[2] = tested on: DU-145
[3] = tested on: SK-OV-3
[4] = tested on: MCF7
[5] = tested on: IGROV-1
[6] = tested on: OVCAR-4
[7] = tested on: Malme-3M
[8] = tested on: BT-549
[9] = tested on: KM12
[10] = tested on: SNB-19
[11] = tested on: SK-MEL-2
[12] = tested on: A549
[13] = tested on: CAKI-1
[14] = tested on: SF-539
[15] = tested on: RPMI-8226
[16] = tested on: HCC 2998
[17] = tested on: NCI-H23
[18] = tested on: NCI/ADR-RES
[19] = tested on: SK-MEL-28

Structure (SMILES) | GI50 [1] | GI50 [2] | GI50 [3] | GI50 [4] | GI50 [5] | GI50 [6] | GI50 [7] | GI50 [8] | GI50 [9] | GI50 [10] | GI50 [11] | GI50 [12] | GI50 [13] | GI50 [14] | GI50 [15] | GI50 [16] | GI50 [17] | GI50 [18] | GI50 [19]
O=c1[nH]/c(=C/c2ccc(OCc3ccccc3)cn2)c(=O)[nH]/c1=C/c1cccnc1 | 0.284 µM (active) | 0.585 µM (active) | 0.703 µM (active) | 0.378 µM (active) | 0.908 µM (active) | 1.25 µM (inactive) | 0.25 µM (active) | 14.2 µM (inactive) | 0.308 µM (active) | 0.718 µM (active) | 0.38 µM (active) | 0.804 µM (active) | 0.479 µM (active) | 0.401 µM (active) | 0.628 µM (active) | 1.19 µM (inactive) | 0.423 µM (active) | 0.345 µM (active) | 
O=C1C2=Cc3ccccc3OC2(O)Oc2cc3ccccc3cc21 (stereo unspecified) | 94.8 µM (inactive) | > 100 µM (inactive) | 56.5 µM (inactive) | > 100 µM (inactive) | 28.7 µM (inactive) | 49.7 µM (inactive) | > 100 µM (inactive) | 15.1 µM (inactive) | 41.4 µM (inactive) |  | > 100 µM (inactive) | > 100 µM (inactive) | > 100 µM (inactive) | 20 µM (inactive) | > 100 µM (inactive) | 28.1 µM (inactive) | > 100 µM (inactive) | > 100 µM (inactive) | > 100 µM (inactive)
O=C(NCCCN1CCN(CCCNC(=O)c2cc(-c3ccccc3)nc3ccccc23)CC1)c1cc(-c2ccccc2)nc2ccccc12 | 12.3 µM (inactive) | 29.8 µM (inactive) | 16.4 µM (inactive) | 9.53 µM (inactive) | 9.53 µM (inactive) | 17.8 µM (inactive) | 1.59 µM (inactive) | 17.6 µM (inactive) | 26.3 µM (inactive) | 14.1 µM (inactive) | 16.3 µM (inactive) | 20.6 µM (inactive) | 7.59 µM (inactive) | 15.2 µM (inactive) | 7.8 µM (inactive) | 2.88 µM (inactive) | 37.3 µM (inactive) | 24.1 µM (inactive) | 2.05 µM (inactive)
C/C(=N\NC(=O)c1ccc(Cl)cc1)c1nc2cccnc2[nH]1 | 45.8 µM (inactive) | 49 µM (inactive) | 20.4 µM (inactive) | 30.2 µM (inactive) | 15.1 µM (inactive) | 18.2 µM (inactive) | 14.2 µM (inactive) | 22.3 µM (inactive) | 24.8 µM (inactive) | 18.9 µM (inactive) | 28.4 µM (inactive) | 30.2 µM (inactive) | 28.8 µM (inactive) | 18.2 µM (inactive) | 27 µM (inactive) | > 100 µM (inactive) | 33.8 µM (inactive) | 20.5 µM (inactive) | 27 µM (inactive)
CCCCCCc1cc2cc(-c3csc(CC#N)n3)c(=O)oc2cc1O | 36.6 µM (inactive) | > 100 µM (inactive) | 13.3 µM (inactive) | > 49.4 µM (inactive) | 29.8 µM (inactive) | 3.45 µM (inactive) | > 100 µM (inactive) | 6.17 µM (inactive) | 22.5 µM (inactive) | 14.4 µM (inactive) | > 100 µM (inactive) | > 100 µM (inactive) | > 44.6 µM (inactive) | 5.71 µM (inactive) | 32.4 µM (inactive) | > 100 µM (inactive) | 22.1 µM (inactive) | 6.35 µM (inactive) | > 100 µM (inactive)
COC(=O)[C@]1(c2cc3ccccc3n2S(=O)(=O)c2ccccc2)CC2CN(C(C)=O)C1CC2=O (stereo partly specified) | 12.6 µM (inactive) | 3.46 µM (inactive) | 8.13 µM (inactive) | 1.69 µM (inactive) | 2.57 µM (inactive) | 3.58 µM (inactive) | 2.77 µM (inactive) | 2.61 µM (inactive) | 2.69 µM (inactive) | 3.26 µM (inactive) | 2.77 µM (inactive) | 3.05 µM (inactive) | 2.68 µM (inactive) | 2.91 µM (inactive) | 0.65 µM (active) | 3.23 µM (inactive) | 3.1 µM (inactive) | 2.87 µM (inactive) | 3.94 µM (inactive)
Cn1c2ccccc2c(=O)c2c(O)cc3c(c21)C=CC1(CCCCC1)O3 | > 10 µM (inactive) | > 10 µM (inactive) | > 10 µM (inactive) | 9.1 µM (inactive) | > 10 µM (inactive) | > 10 µM (inactive) | > 10 µM (inactive) | 2.08 µM (inactive) | 1.62 µM (inactive) | > 10 µM (inactive) | > 10 µM (inactive) | > 10 µM (inactive) | > 10 µM (inactive) | > 10 µM (inactive) | > 10 µM (inactive) | > 10 µM (inactive) | > 10 µM (inactive) | > 10 µM (inactive) | > 10 µM (inactive)
C=CCOC(=O)[C@@H]1C[C@@H](OC(C)(C)C)CN1C(=O)[C@@H]1[C@H]2OC(C)(C)O[C@H]2CN1C(=O)OCC1c2ccccc2-c2ccccc21 | 17.9 µM (inactive) | 3.45 µM (inactive) | 17.2 µM (inactive) | 48.4 µM (inactive) | 17 µM (inactive) | 17.2 µM (inactive) | 18.2 µM (inactive) | 20.1 µM (inactive) | 2.86 µM (inactive) | 16.9 µM (inactive) | 32.2 µM (inactive) | 15.3 µM (inactive) | 4.88 µM (inactive) | 14.8 µM (inactive) | 6.19 µM (inactive) | 17.1 µM (inactive) | 17.6 µM (inactive) | 3.68 µM (inactive) | 18.1 µM (inactive)
C=C1CC(CNc2cc(Cl)nc(N)n2)C1 | > 100 µM (inactive) | > 100 µM (inactive) | 44.9 µM (inactive) | > 100 µM (inactive) | > 100 µM (inactive) | 57.1 µM (inactive) | > 100 µM (inactive) | 77.3 µM (inactive) | > 100 µM (inactive) | > 100 µM (inactive) | > 100 µM (inactive) | > 100 µM (inactive) | 74.5 µM (inactive) | > 100 µM (inactive) | 49.9 µM (inactive) | > 100 µM (inactive) | > 100 µM (inactive) | 62.7 µM (inactive) | > 100 µM (inactive)
N=C(N)NS(=O)(=O)c1ccc(NNc2c3ccccc3nc3ccccc23)cc1 | 13.8 µM (inactive) | 2.58 µM (inactive) | 11.1 µM (inactive) | 2.48 µM (inactive) | 15.2 µM (inactive) | 4.85 µM (inactive) | 17.3 µM (inactive) | 1.18 µM (inactive) | 11.2 µM (inactive) | 8.34 µM (inactive) | 18.2 µM (inactive) | 9.1 µM (inactive) | 15.8 µM (inactive) | 14.3 µM (inactive) | 12.6 µM (inactive) | 12.4 µM (inactive) | 9.29 µM (inactive) | 26.4 µM (inactive) | 13.8 µM (inactive)
OC(C1CCCC1=N/N=C1/CCCC1C(O)(C(F)(F)Cl)C(F)(F)Cl)(C(F)(F)Cl)C(F)(F)Cl (stereo unspecified) | > 10 µM (inactive) | > 10 µM (inactive) | > 10 µM (inactive) | > 10 µM (inactive) | > 10 µM (inactive) | > 10 µM (inactive) | > 10 µM (inactive) | > 10 µM (inactive) | > 10 µM (inactive) | > 10 µM (inactive) | > 10 µM (inactive) | > 10 µM (inactive) | > 10 µM (inactive) | > 10 µM (inactive) | > 10 µM (inactive) | > 10 µM (inactive) | > 10 µM (inactive) | > 10 µM (inactive) | > 10 µM (inactive)
CC(C)=CCC[C@@H](C)C1=C(O)C(=O)C(C)=C(Nc2ccccc2)C1=O | 5.77 µM (inactive) | 24.2 µM (inactive) | 27.6 µM (inactive) | 24.5 µM (inactive) | 17.8 µM (inactive) | 19.3 µM (inactive) | 17.8 µM (inactive) | 24.7 µM (inactive) | 22.8 µM (inactive) | 31.4 µM (inactive) | 20.2 µM (inactive) | 16.9 µM (inactive) | 15.1 µM (inactive) | 26 µM (inactive) | 43.2 µM (inactive) | 45.1 µM (inactive) | 24.9 µM (inactive) | 4.03 µM (inactive) | 43 µM (inactive)
CS(=O)(=O)Nc1ccc2ccccc2c1 | > 100 µM (inactive) | > 100 µM (inactive) | > 100 µM (inactive) | > 100 µM (inactive) | > 100 µM (inactive) | > 100 µM (inactive) | > 100 µM (inactive) | 30.4 µM (inactive) | > 100 µM (inactive) | > 100 µM (inactive) | > 100 µM (inactive) | > 100 µM (inactive) | > 100 µM (inactive) | > 100 µM (inactive) | > 100 µM (inactive) | > 100 µM (inactive) | > 100 µM (inactive) | > 100 µM (inactive) | > 100 µM (inactive)
COc1cc(C(=O)Nc2nnc(S(N)(=O)=O)s2)cc(OC)c1OC | > 100 µM (inactive) | > 100 µM (inactive) | > 100 µM (inactive) | > 100 µM (inactive) |  | > 100 µM (inactive) | > 100 µM (inactive) | > 100 µM (inactive) | > 100 µM (inactive) | > 100 µM (inactive) | > 100 µM (inactive) | > 100 µM (inactive) | > 100 µM (inactive) | > 100 µM (inactive) | > 100 µM (inactive) | > 100 µM (inactive) | > 100 µM (inactive) | > 100 µM (inactive) | > 100 µM (inactive)
Clc1cc2nnn(C3CCCCO3)c2cc1Cl (stereo unspecified) | > 100 µM (inactive) | 99.1 µM (inactive) | > 100 µM (inactive) | > 100 µM (inactive) | > 100 µM (inactive) | > 100 µM (inactive) | > 100 µM (inactive) | 41.5 µM (inactive) | 86.3 µM (inactive) | > 100 µM (inactive) | > 100 µM (inactive) | 80.2 µM (inactive) | 30.4 µM (inactive) | > 100 µM (inactive) | > 100 µM (inactive) | > 100 µM (inactive) | > 100 µM (inactive) | 48.3 µM (inactive) | 
